pIC50: −log10 of the molar value.
These compounds were tested against T1, phospho p-38 alpha kinase (Homo sapiens, UniProt Q16539) (assay: P-38 alpha kinase assay (spectrophotometric, pyruvate kinase/lactate dehydrogenase coupled)). Conditions: Table 3; rates from […] to 2 h time frame.
T1 construct: purchased Panvera
Assay type: biochemical
Description: In this assay, the oxidation of NADH was continuously measured spectrophometrically. […] The reaction was initiated by adding ATP. The absorption at 340 nm was monitored continuously for up to 4 hours at 30° C. on Polarstar Optima plate reader (BMG). The kinase activity (reaction rate) was calculated from the slope at the time frame from 1.5 h to 2 h.
For inhibition determinations, test compounds were incubated with the reaction mixture for ˜5 min before adding ATP to start the reaction. […] IC50 values were calculated from a series of % inhibition values determined at a range of concentrations of each inhibitor using Prism to process the data and fit inhibition curves. Generally, the rates obtained at the time frame of 1.5 h to 2 h were used for these calculations.

T1 sequence (Q16539 whole entry): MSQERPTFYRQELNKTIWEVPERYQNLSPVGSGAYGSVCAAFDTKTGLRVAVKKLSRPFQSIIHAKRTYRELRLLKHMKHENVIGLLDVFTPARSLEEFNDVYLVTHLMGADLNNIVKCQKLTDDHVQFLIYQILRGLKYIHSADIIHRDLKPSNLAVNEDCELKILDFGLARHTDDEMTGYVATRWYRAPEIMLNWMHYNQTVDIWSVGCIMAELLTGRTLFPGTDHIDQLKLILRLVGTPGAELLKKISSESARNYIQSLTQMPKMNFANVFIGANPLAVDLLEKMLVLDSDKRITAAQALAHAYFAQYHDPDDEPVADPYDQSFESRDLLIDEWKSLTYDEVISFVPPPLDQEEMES

How did the pIC50 turn out when `COc1cccc(-n2nc(C(C)(C)C)cc2NC(=O)Nc2ccsc2)c1` [Example 327, 1-(3-t-butyl-1-(3-methoxyphenyl)-1H-pyrazol-5-yl)-3-(thiophen-3-yl)urea] was run?
Its pIC50 is 6.09.

How did the pIC50 turn out when `COc1cccc(-n2nc(C(C)(C)C)cc2NC(=O)Nc2ccc3c(c2)OCO3)c1` [Example 329, 1-(benzo[d][1,3]dioxo-5-yl)-3-(3-t-butyl-1-(3-methoxyphenyl)-1H-pyrazol-5-yl)urea] was run?
The pIC50 was 6.60.

How did the pIC50 turn out when `COc1cccc(-n2nc(-c3ccccc3)cc2NC(=O)Nc2cccc(Br)c2)c1` [Example 332] was run?
Its pIC50 is 7.30.

`COc1cccc(-n2nc(-c3ccccc3)cc2NC(=O)Nc2cccc(C(F)(F)F)c2)c1` [Example 333] was tested. Which pIC50 did it give?
Its pIC50 is 5.61.

`COc1cccc(NC(=O)Nc2cc(-c3ccccc3)nn2-c2cccc(OC)c2)c1` [Example 334, 1-(3-methoxyphenyl)-3-(1-(3-methoxyphenyl)-3-phenyl-1H-pyrazol-5-yl)urea] was tested. Which pIC50 did it give?
The pIC50 was 5.66.

With `COc1cccc(-n2nc(-c3ccccc3)cc2NC(=O)Nc2cccc(Cl)c2Cl)c1` [Example 335] as the compound, how does the pIC50 read?
Its pIC50 is 7.85.

With `COc1cccc(-n2nc(C(F)(F)F)cc2NC(=O)Nc2cccc3ccccc23)c1` [Example 342, 1-(3-(trifluoromethyl)-1-(3-methoxyphenyl)-1H-pyrazol-5-yl)-3-(naphthalen-1-yl)urea] as the compound, how does the pIC50 read?
The pIC50 was 6.00.

With `COc1cccc(-n2nc(C(C)(C)C)cc2NC(=O)Nc2ccccc2F)c1` [Example 344, 1-[3-t-butyl-1-(3-methoxy-phenyl)-1H-pyrazol-5-yl]-3-(2-fluorophenyl)urea] as the compound, how does the pIC50 read?
Its pIC50 is 6.74.

With `COc1cccc(-n2nc(C(C)(C)C)cc2NC(=O)Nc2cccc(F)c2F)c1` [Example 345, 1-[3-t-butyl-1-(3-methoxy-phenyl)-1H-pyrazol-5-yl]-3-(2,3-difluorophenyl)urea] as the compound, how does the pIC50 read?
Its pIC50 is 6.57.

Same assay, conditions: read-out: % Inhibition @ concentration, Table 3; at 2 uM

With `COc1cccc(-n2nc(C)cc2NC(=O)Nc2cccc(C(F)(F)F)c2)c1` [Example 338, 1-(1-(3-methoxyphenyl)-3-methyl-1H-pyrazol-5-yl)-3-(3-(trifluoromethyl)phenyl)urea] as the compound, how does the inhibition at 2 µM read?
The inhibition at 2 µM was 7%.

With `COc1cccc(NC(=O)Nc2cc(C)nn2-c2cccc(OC)c2)c1` [Example 339, 1-(3-methoxyphenyl)-3-(1-(3-methoxyphenyl)-3-methyl-1H-pyrazol-5-yl)urea] as the compound, how does the inhibition at 2 µM read?
The inhibition at 2 µM was 9%.

Same assay, conditions: read-out: % Inhibition @ concentration, Table 3; at 10 uM

`COc1cccc(-n2nc(C(C)(C)C)cc2NC(=O)Nc2cccc(N(C)C)c2)c1` [Example 324, 1-(3-t-butyl-1-(3-methoxyphenyl)-1H-pyrazol-5-yl)-3-(3-(dimethylamino)phenyl)urea] was tested. Which inhibition at 10 µM did it give?
Its inhibition at 10 µM is 40%.

`COc1cccc(-n2nc(C(C)(C)C)cc2NC(=O)Nc2cccc(C#N)c2)c1` [Example 325, 1-(3-t-butyl-1-(3-methoxyphenyl)-1H-pyrazol-5-yl)-3-(3-cyanophenyl)urea] was tested. Which inhibition at 10 µM did it give?
Its inhibition at 10 µM is 54%.

With `COc1cccc(NC(=O)Nc2cc(C(C)(C)C)nn2-c2cccc(OC)c2)c1` [Example 326, 1-(3-t-butyl-1-(3-methoxyphenyl)-1H-pyrazol-5-yl)-3-(3-methoxyphenyl)urea] as the compound, how does the inhibition at 10 µM read?
The inhibition at 10 µM was 41%.

`COc1cccc(-n2nc(C(C)(C)C)cc2NC(=O)Nc2cccnc2)c1` [Example 328, 1-(3-t-butyl-1-(3-methoxyphenyl)-1H-pyrazol-5-yl)-3-(pyridin-3-yl)urea] was tested. Which inhibition at 10 µM did it give?
Its inhibition at 10 µM is 68%.

`COc1cccc(-n2nc(-c3ccccc3)cc2NC(=O)Nc2cccc(Cl)c2)c1` [Example 331] was tested. Which inhibition at 10 µM did it give?
The inhibition at 10 µM was 71%.

With `COc1cccc(-n2nc(C)cc2NC(=O)Nc2cccc(Cl)c2)c1` [Example 336, 1-(3-chlorophenyl)-3-(1-(3-methoxyphenyl)-3-methyl-1H-pyrazol-5-yl)urea] as the compound, how does the inhibition at 10 µM read?
The inhibition at 10 µM was 27%.

For `COc1cccc(-n2nc(C)cc2NC(=O)Nc2cccc(Br)c2)c1` [Example 337, 1-(3-bromophenyl)-3-(1-(3-methoxyphenyl)-3-methyl-1H-pyrazol-5-yl)urea], which inhibition at 10 µM is on record?
The inhibition at 10 µM was 8%.

For `COc1cccc(-n2nc(C)cc2NC(=O)Nc2cccc(Cl)c2Cl)c1` [Example 340, 1-(2,3-dichlorophenyl)-3-(1-(3-methoxyphenyl)-3-methyl-1H-pyrazol-5-yl)urea], which inhibition at 10 µM is on record?
The inhibition at 10 µM was 31%.

— patent publication US20070191336A1 (priority 2003, published 2007)
